Entries after “also recorded” stand apart in the source; their conditions may differ.
System: Atf3^−/− mice
Experiment: Trace fear conditioning (contextual and tone freezing tests) after intracranial infusion of cytochalasin D
Assay type: in vivo
Method: The habituation session was performed similarly to the DFC. The mice were divided into three groups (WT: n=15; Atf3^+/−: n=10; Atf3^−/−: n=16) and placed in the conditioning chamber for 15 min per day for 3 days. On Day 4, they underwent three trace fear conditioning trials: a 20-s tone (6000 Hz, 85 dB; CS), followed by a 10-s time interval, and then a 1-s foot shock (2 mA; US). Twenty-four hours later, the mice were placed in the same conditioning chamber for 6 min with neither tone nor foot shock for contextual testing. One hour after the contextual test, the mice were placed in a novel chamber for a tone test, which was performed as follows: 1 min with neither tone nor foot shock followed by a 6-min tone (6000 Hz, 85 dB). Freezing behaviors were recorded and analyzed using the FreezeScan software, and the freezing percentage was calculated using the aforementioned formula.
At 14 weeks of age, mice (Atf3^+/−: n=5, Atf3^−/−: n=9) were anesthetized using a mixture of ketamine, xylazine, and saline (0.55 mL/25 g) in accordance with the regulations of the Lab Animal Center, Tzu Chi University, Taiwan. Mouse heads were restrained in stereotaxic apparatus to ensure movement restriction during surgery. […] After surgery, the mice were placed in their respective cages to recover for 4 days and were then tested for TFC. Habituation was performed as described in the trace fear conditioning protocol. Using a Hamilton syringe, the actin depolymerizing agent cytochalasin D (Sigma-Aldrich, MO, USA, catalogue No. C8273), dissolved in dimethyl sulfoxide at a concentration of 25 μg/μL, was infused at a rate of 0.5 μL/min for 1 min immediately after fear conditioning on Day 4. Twenty-four hours later, contextual and tone testing was performed as previously described. A few mice were unable to perform the tasks because of loss of mobility after surgery; the data for these mice are not included. Mice were transcardially perfused, and their brains were incubated in Golgi-Cox staining solution.

C=C1[C@@H](C)[C@H]2[C@H](Cc3ccccc3)NC(=O)[C@]23[C@H](OC(C)=O)/C=C/[C@@](C)(O)C(=O)[C@@H](C)C/C=C/[C@H]3[C@@H]1O [cytochalasin D]
Freezing percentage to context (Atf3^−/− mice, cytochalasin D 25 μg/μL in DMSO infused at 0.5 μL/min for 1 min immediately after trace fear conditioning, contextual test 24 h later, compared with Atf3^−/− mice treated with saline (FIG. 5G)): significantly lower | Freezing percentage to tone (Atf3^−/− mice, cytochalasin D 25 μg/μL in DMSO infused at 0.5 μL/min for 1 min immediately after trace fear conditioning, tone test 24 h later, compared with Atf3^−/− mice treated with saline (FIG. 5H)): significantly lower | Freezing behavior (fear phenotype) of Atf3^−/− mice (hippocampal / intracranial infusion of cytochalasin D, summary statement, context or tone test not specified): reversed the phenotype of Atf3^−/− mice; also recorded: reduced the freezing behavior of the Atf3^−/− mice to a wild-type mouse level
